Test results published in paper PMC6271945, “Avicequinone C Isolated from Avicennia marina Exhibits 5α-Reductase-Type 1 Inhibitory Activity Using an Androgenic Alopecia Relevant Cell-Based Assay System” (Molecules, 2014).

Assays:
[1] = molecular target: T1, 5α-reductase type 1 (5α-R1) (Homo sapiens, UniProt P18405); assay: HHDPC cell-based assay of testosterone to […]α-DHT conversion (endogenous […]α-R1), non-radioactive TLC detection
T1 construct: gene SRD5A1
T1 sequence (P18405 1-259): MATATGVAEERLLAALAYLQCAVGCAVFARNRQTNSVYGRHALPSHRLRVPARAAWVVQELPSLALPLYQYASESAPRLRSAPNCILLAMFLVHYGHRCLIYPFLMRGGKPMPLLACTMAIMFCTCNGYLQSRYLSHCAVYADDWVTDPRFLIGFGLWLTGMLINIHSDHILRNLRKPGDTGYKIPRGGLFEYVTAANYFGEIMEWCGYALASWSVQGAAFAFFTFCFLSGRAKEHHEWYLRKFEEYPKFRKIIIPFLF

[2] = molecular target: T1, 5α-reductase type 1 (5α-R1); assay: HHDPC cell-based assay of testosterone to […]α-DHT conversion (endogenous […]α-R1), TLC detection; positive control

IC50 [1]	Compound	HHDPC cell-based assay of testosterone to 5α-DHT conversion (endogenous 5α-R1), [2]
38.8 ± 1.29 µM	CC(C)(O)c1cc2c(o1)C(=O)c1ccccc1C2=O [G1, naphtho 2'-(1-hydroxy-1-methylethyl)[2,3-β]furan-1,4-dione]	–
–	C[C@]12C=CC(=O)N[C@@H]1CC[C@@H]1[C@@H]2CC[C@]2(C)[C@@H](C(=O)Nc3cc(C(F)(F)F)ccc3C(F)(F)F)CC[C@@H]12 [dutasteride]	complete inhibition at 0.1 and 0.01 µg/mL; 16.5% at 0.001
